The record followed here is patent US6835726B2, “Pyrimidine derivatives” (priority 1998, dated 2004).

Bounds are passed on as bounds.

In general, melting point refers to the temperature, or range, at which the solid turns liquid.

One series concerns recombinant human cytomegalovirus (HCMV). Nature of the series: microbe, parasite or virus in culture. The series is classed as cell-based. As to conditions: CMV assay, Table 2; read-out: Antiviral Activity. The source says: Certain preferred compounds and compositions are capable of specifically inhibiting or suppressing cytomegalovirus infection. For the assessment of activity against human CMV, a method was used which is similar to that described in Kohler, et al., J. Virol. 68:6589-6597 (1994). Briefly, a recombinant human cytomegalovirus (HCMV) was made containing a marker gene (luciferase) under the control of the promoter for the late 28 kDa viral structural phosphoprotein pp28. Human foreskin fibroblast (HFF) cells were infected with the recombinant HCMV virus (MOI 5), placed into 96-well plates, and cultured under standard cell-culture conditions. Compounds that were evaluated for anti-HCMV activity were added to the infected cells 1 hour later. The level of luciferase expression was measured 24 hours after treatment with the test compounds. […] As an additional control, the cytotoxicity of test compounds on untreated HFF cells was also evaluated in cultured cell growth experiments.
Regarding `CCC(Nc1nc(C)c([N+](=O)[O-])c(-n2ccnc2C)n1)c1ccccc1` (centres unmarked), the IC50 was 100 to 500 nM.
`CCc1nccn1-c1nc(NCc2c(F)cccc2Cl)nc(C)c1[N+](=O)[O-]`: the IC50 lay in the range of 100 to 500 nM.
On to `Cc1nc(NCc2cc(F)ccc2F)nc(-n2ccnc2C)c1[N+](=O)[O-]`, for which the IC50 is 100 to 500 nM.

The same series, now with this note: CMV assay, Table 3; read-out: Antiviral Activity.
On to `Cc1nc(OCCC(C)(C)C)nc(-n2ccnc2)c1[N+](=O)[O-]` [3,3-dimethyl-1-butyl/H/Me], for which the IC50 was over 500 nM.
Same read-out and setting: with `Cc1nc(OCCC(C)(C)C)nc(-n2ccnc2C)c1[N+](=O)[O-]` [3,3-dimethyl-1-butyl/Me/Me] the figure was over 500 nM.
For `COC(C)CCOc1nc(C)c([N+](=O)[O-])c(-n2ccnc2)n1` (centres unmarked) [3-methoxy-1-butyl/H/Me], the IC50 was over 500 nM.
Still for that read-out and setting: the same measure for `COC(C)CCOc1nc(C)c([N+](=O)[O-])c(-n2ccnc2C)n1` (centres unmarked) [3-methoxy-1-butyl/Me/Me]: over 500 nM.
The same measure, in the same setting: the same measure for `Cc1nc(OCc2ccccc2)nc(-n2ccnc2)c1[N+](=O)[O-]` [benzyl/H/Me]: over 500 nM.
The same measure, in the same setting: the same measure for `CCOc1nc(C)c([N+](=O)[O-])c(-n2ccnc2C)n1` [ethyl/Me/Me]: over 500 nM; for `COc1nc(C)c([N+](=O)[O-])c(-n2ccnc2C)n1` [methyl/Me/Me]: over 500 nM; for `CCCCOc1nc(C)c([N+](=O)[O-])c(-n2ccnc2)n1` [n-butyl/H/Me]: over 500 nM.
Consider `CCCCOc1nc(C)c([N+](=O)[O-])c(-n2ccnc2C)n1` [n-butyl/Me/Me], for which the IC50 was over 500 nM.
Same read-out and setting: with `CCCOc1nc(C)c([N+](=O)[O-])c(-n2ccnc2)n1` [n-propyl/H/Me] the figure was over 500 nM.
On the same count and under the same terms, the same measure for `Cc1nc(OCCc2ccccc2)nc(-n2ccnc2)c1[N+](=O)[O-]` [phenethyl/H/Me]: over 500 nM.

Staying with this series, now noted: CMV assay, Table 4; read-out: Antiviral Activity.
`Cc1nc(NC2CCc3ccccc32)nc(-n2ccnc2C)c1[N+](=O)[O-]` (centres unmarked): the IC50 is under 100 nM.
The same measure, in the same setting: with `Cc1nc(NC2CCCc3ccccc32)nc(-n2ccnc2C)c1[N+](=O)[O-]` (centres unmarked) the figure was 100 to 500 nM.
Same read-out and setting: with `Cc1nc(N(C)C2CCc3ccccc32)nc(-n2ccnc2C)c1[N+](=O)[O-]` (centres unmarked) the figure was 100 to 500 nM.
Still for that read-out and setting: the same measure for `Cc1nc(NC2CCc3c(Cl)cccc32)nc(-n2ccnc2C)c1[N+](=O)[O-]` (centres unmarked): over 500 nM; for `Cc1nc(NC2COc3ccccc32)nc(-n2ccnc2C)c1[N+](=O)[O-]` (centres unmarked): 100 to 500 nM; for `Cc1nc(NC2CCc3cc(F)c(F)cc32)nc(-n2ccnc2)c1[N+](=O)[O-]` (centres unmarked): 100 to 500 nM.
As for `CCc1nccn1-c1nc(NC2CCc3cc(F)c(F)cc32)nc(C)c1[N+](=O)[O-]` (centres unmarked), the IC50 lay in the range of 100 to 500 nM.
In the case of `Cc1nc(NC2CCc3cc(F)c(F)cc32)nc(-n2ccnc2C)c1[N+](=O)[O-]` (centres unmarked), the IC50 was 100 to 500 nM.
Consider `CCc1nccn1-c1nc(NC2Cc3ccccc3C2)nc(C)c1[N+](=O)[O-]`, for which the IC50 was over 500 nM.
Turning to `Cc1nc(NC2CCc3c(F)ccc(F)c32)nc(-n2ccnc2)c1[N+](=O)[O-]` (centres unmarked), the IC50 lay within 100 to 500 nM.
Same read-out and setting: the same measure for `Cc1nc(NC2CCc3c(F)ccc(F)c32)nc(-n2ccnc2C)c1[N+](=O)[O-]` (centres unmarked): under 100 nM; for `CCc1nccn1-c1nc(NC2CCc3c(F)ccc(F)c32)nc(C)c1[N+](=O)[O-]` (centres unmarked): under 100 nM.
As for `Cc1nc(NC2CCc3c(F)cccc32)nc(-n2ccnc2)c1[N+](=O)[O-]` (centres unmarked), the IC50 was 100 to 500 nM.
With `Cc1nc(NC2CCc3c(F)cccc32)nc(-n2ccnc2C)c1[N+](=O)[O-]` (centres unmarked), the IC50 lay within 100 to 500 nM.
Turning to `CCc1nccn1-c1nc(NC2CCc3c(F)cccc32)nc(C)c1[N+](=O)[O-]` (centres unmarked), the IC50 was in the range of 100 to 500 nM.
For the molecule `Cc1nc(NC2CCc3cc(Br)ccc32)nc(-n2ccnc2C)c1[N+](=O)[O-]` (centres unmarked), the IC50 was 100 to 500 nM.
As for `Cc1nc(NC2CCc3ccccc32)nc(-n2ccnc2)c1[N+](=O)[O-]` (centres unmarked), the IC50 is under 100 nM.
Still for that read-out and setting: the same measure for `Cc1nc(NC2CCc3ccc(Cl)cc32)nc(-n2ccnc2C)c1[N+](=O)[O-]` (centres unmarked): 100 to 500 nM; for `Cc1nc(NC2CCc3cc(F)ccc32)nc(-n2ccnc2)c1[N+](=O)[O-]` (centres unmarked): under 100 nM.
As to `Cc1nc(NC2CCc3cc(F)ccc32)nc(-n2ccnc2C)c1[N+](=O)[O-]` (centres unmarked), the IC50 lay in the range of 100 to 500 nM.
Still for that read-out and setting: with `COC1c2ccccc2CC1Nc1nc(C)c([N+](=O)[O-])c(-n2ccnc2)n1` (centres unmarked) the figure was over 500 nM; with `COC1c2ccccc2CC1Nc1nc(C)c([N+](=O)[O-])c(-n2ccnc2C)n1` (centres unmarked), over 500 nM.
On to `CCc1nccn1-c1nc(NC2CCc3ccccc32)nc(C)c1[N+](=O)[O-]` (centres unmarked), for which the IC50 was 100 to 500 nM.
Same read-out and setting: the same measure for `Cc1nc(NC2Cc3ccccc3C2(C)C)nc(-n2ccnc2)c1[N+](=O)[O-]` (centres unmarked): over 500 nM; for `Cc1nc(NC2Cc3ccccc3C2(C)C)nc(-n2ccnc2C)c1[N+](=O)[O-]` (centres unmarked): 100 to 500 nM.

Staying with this series, now noted: Human betaherpesvirus 5, HFF, 24 h.
Take `Cc1nc(N2CCN(Cc3ccccc3)CC2)nc(-n2ccnc2C)c1[N+](=O)[O-]` [u, 2-(4-benzylpiperazin-1-yl)-4-(2-methylimidazol-1-yl)-6-methyl-5-nitropyrimidine]: the IC50 was found to be 100 nM.

Tested on in another series: not given
Test: not given
Settings: not given
The molecule `Cc1nc(NC2Cc3ccccc3C2)nc(-n2ccnc2C)c1[N+](=O)[O-].Cl` returned a melting point of 184 to 185 °C.
With `CC[C@H]1CCCC[C@H]1Nc1nc(C)c([N+](=O)[O-])c(-n2ccnc2)n1` (relative stereo), the melting point fell in the range of 123 to 124 °C.
Same read-out and setting: the same measure for `Cc1nc(NC2Cc3ccccc3C2)nc(-n2ccnc2C)c1[N+](=O)[O-]` [2-(2-indanamino)-4-(2-methylimidazol-1-yl)-6-methyl-5-nitropyrimidine]: 203 to 204 °C; for `Cc1nc(NC2Cc3ccccc3C2)nc(-n2ccnc2)c1[N+](=O)[O-]` [2-(2-indanamino)-4-imidazol-1-yl-6-methyl-5-nitropyriridine]: 177 to 178 °C; for `CCc1nccn1-c1nc(NC2CCc3c(F)cc(F)cc32)nc(C)c1[N+](=O)[O-]` (centres unmarked) [2-(4,6-difluoro-1-indanamino)-4-(2-ethylimidazol-1-yl)-6-methyl-5-nitropyrimidine]: 88 to 89 °C.
For the molecule `Cc1nc(NC2CCc3c(F)cc(F)cc32)nc(-n2ccnc2C)c1[N+](=O)[O-]` (centres unmarked) [2-(4,6-difluoro-1-indanamino)-4-(2-methylimidazol-1-yl)-6-methyl-5-nitropyrimidine], the melting point was 164 to 165 °C.
Consider `Cc1nc(NC2CCc3c(F)cc(F)cc32)nc(-n2ccnc2)c1[N+](=O)[O-]` (centres unmarked) [2-(4,6-difluoro-1-indanamino)-4-(imidazol-1-yl)-6-methyl-5-nitropyrimidine], for which the melting point was in the range of 175 to 176 °C.
